Read-outs that look alike come from different tables or passages of the source.
How the values were obtained:
[1] = system: MDA-MB-231 breast cancer cell line; assay: Cytotoxic assay against MDA-MB-231 breast cancer cell line; format: cell-based; conditions: Homo sapiens
Method: The newly prepared Schiff bases 2–5g were screened for their in vitro cytotoxic activity against the MDA-MB-231 breast cancer cell line taking CA-4 as a reference drug. […] In addition, further structure extension to give N-aryl hydrazinyl molecules 4a–5g produced compounds with considerable cytotoxic activity, which may give an indication that the aryl ring is important for cytotoxic activity. […]
Cytotoxic activity of the prepared schiff bases against MDA-MB-231 breast cell Line was determined according previously reported methods. (See Supplementary Materials—Appendix SB).

[2] = system: normal breast cell line MCF-10A; assay: Cytotoxic assay against normal breast cell line MCF-10A; format: cell-based; conditions: Homo sapiens, read-out: IC50 Value (μM) MCF-10A
[3] = MDA-MB-231, mean of three independent replicates ± SE, read-out: IC50 Value (μM) MDA-MB-231

| SMILES | melting point | IC50 ([1]; MDA-MB-231, read-out: IC50 Value (μM) MDA-MB-231) | IC50 [2] | IC50 [1, 3] |
| --- | --- | --- | --- | --- |
| COc1ccc(/C=C\c2cc(OC)c(OC)c(OC)c2)cc1O [CA-4, combretastatin A-4, reference compound] | – | 0.54 ± 0.04 µM | 8.86 ± 0.67 µM | – |
| C/C=N/NC(=O)/C(=C/c1cc(OC)c(OC)c(OC)c1)NC(=O)c1cc(OC)c(OC)c(OC)c1 [Compound 2, N-((Z)-3-((E)-2-Ethylidenehydrazinyl)-3-oxo-1-(3,4,5-trimethoxyphenyl)prop-1-en-2-yl)-3,4,5-trimethoxybenzamide] | 224 to 226 °C | – | – | 31.6 ± 1.07 µM |
| COc1cc(/C=C(\NC(=O)c2cc(OC)c(OC)c(OC)c2)C(=O)N/N=C/c2ccco2)cc(OC)c1OC [Compound 3, N-((Z)-3-((E)-2-(Furan-2-ylmethylene)hydrazinyl)-3-oxo-1-(3,4,5-trimethoxyphenyl)prop-1-en-2-yl)-3,4,5-trimethoxybenzamide] | 212 to 214 °C | – | – | 6.08 ± 0.42 µM |
| COc1cc(/C=C(\NC(=O)c2cc(OC)c(OC)c(OC)c2)C(=O)N/N=C/c2ccc(F)cc2)cc(OC)c1OC [Compound 4a, N-((Z)-3-((E)-2-(4-Fluorobenzylidene)hydrazinyl)-3-oxo-1-(3,4,5-trimethoxyphenyl)prop-1-en-2-yl)-3,4,5-trimethoxybenzamide] | 201 to 203 °C | – | – | 23.7 ± 1.13 µM |
| COc1cc(/C=C(\NC(=O)c2cc(OC)c(OC)c(OC)c2)C(=O)N/N=C/c2ccc(Cl)cc2)cc(OC)c1OC [Compound 4b, N-((Z)-3-((E)-2-(4-Chlorobenzylidene)hydrazinyl)-3-oxo-1-(3,4,5-trimethoxyphenyl)prop-1-en-2-yl)-3,4,5-trimethoxybenzamide] | 233 to 235 °C | – | – | 16.1 ± 0.83 µM |
| COc1cc(/C=C(\NC(=O)c2cc(OC)c(OC)c(OC)c2)C(=O)N/N=C/c2ccccc2[N+](=O)[O-])cc(OC)c1OC [Compound 4c, 3,4,5-Trimethoxy-N-((Z)-3-((E)-2-(2-nitrobenzylidene)hydrazinyl)-3-oxo-1-(3,4,5-trimethoxyphenyl)prop-1-en-2-yl)benzamide] | 239 to 241 °C | – | – | 38.8 ± 0.93 µM |
| COc1cc(/C=C(\NC(=O)c2cc(OC)c(OC)c(OC)c2)C(=O)N/N=C/c2ccccc2O)cc(OC)c1OC [Compound 4d, N-((Z)-3-((E)-2-(2-Hydroxybenzylidene)hydrazinyl)-3-oxo-1-(3,4,5-trimethoxyphenyl)prop-1-en-2-yl)-3,4,5-trimethoxybenzamide] | 220 to 222 °C | – | – | 5.98 ± 0.28 µM |
| COc1cc(/C=C(\NC(=O)c2cc(OC)c(OC)c(OC)c2)C(=O)N/N=C/c2ccc(O)cc2)cc(OC)c1OC [Compound 4e, N-((Z)-3-((E)-2-(4-Hydroxybenzylidene)hydrazinyl)-3-oxo-1-(3,4,5-trimethoxyphenyl)prop-1-en-2-yl)-3,4,5-trimethoxybenzamide] | – | – | – | 7.1 ± 1.02 µM |
| COc1cc(/C=C(\NC(=O)c2cc(OC)c(OC)c(OC)c2)C(=O)N/N=C/c2ccc(C)cc2)cc(OC)c1OC [Compound 4f, 3,4,5-Trimethoxy-N-((Z)-3-((E)-2-(4-methylbenzylidene)hydrazinyl)-3-oxo-1-(3,4,5-trimethoxyphenyl)prop-1-en-2-yl)benzamide] | 208 to 210 °C | – | – | 4.52 ± 0.36 µM |
| COc1ccc(/C=N/NC(=O)/C(=C/c2cc(OC)c(OC)c(OC)c2)NC(=O)c2cc(OC)c(OC)c(OC)c2)cc1 [Compound 4g, 3,4,5-Trimethoxy-N-((Z)-3-((E)-2-(4-methoxybenzylidene)hydrazinyl)-3-oxo-1-(3,4,5-trimethoxyphenyl)prop-1-en-2-yl)benzamide] | 217 to 219 °C | – | – | 3.43 ± 0.22 µM |
| COc1cc(/C=C(\NC(=O)c2cc(OC)c(OC)c(OC)c2)C(=O)N/N=C/c2ccc(N(C)C)cc2)cc(OC)c1OC [Compound 4i, N-((Z)-3-((E)-2-(4-(Dimethylamino)benzylidene)hydrazinyl)-3-oxo-1-(3,4,5-trimethoxyphenyl)prop-1-en-2-yl)-3,4,5-trimethoxybenzamide] | 243 to 245 °C | – | – | 3.46 ± 0.51 µM |
| COc1cc(/C=N/NC(=O)/C(=C/c2cc(OC)c(OC)c(OC)c2)NC(=O)c2cc(OC)c(OC)c(OC)c2)ccc1O [Compound 4j, N-((Z)-3-((E)-2-(4-Hydroxy-3-methoxybenzylidene)hydrazinyl)-3-oxo-1-(3,4,5-trimethoxyphenyl)prop-1-en-2-yl)-3,4,5-trimethoxybenzamide] | 226 to 228 °C | – | – | 2.84 ± 0.18 µM |
| COc1cc(/C=N/NC(=O)/C(=C/c2cc(OC)c(OC)c(OC)c2)NC(=O)c2cc(OC)c(OC)c(OC)c2)cc(OC)c1 [Compound 4k, N-((Z)-3-((E)-2-(3,5-Dimethoxybenzylidene)hydrazinyl)-3-oxo-1-(3,4,5-trimethoxyphenyl)prop-1-en-2-yl)-3,4,5-trimethoxybenzamide] | 214 to 216 °C | – | – | 4.8 ± 0.17 µM |
| COc1cc(/C=C(\NC(=O)c2cc(OC)c(OC)c(OC)c2)C(=O)N/N=C/c2cc(OC)c(OC)c(OC)c2)cc(OC)c1OC [Compound 4l, 3,4,5-Trimethoxy-N-((Z)-3-oxo-3-((E)-2-(3,4,5-trimethoxybenzylidene)hydrazinyl)-1-(3,4,5-trimethoxyphenyl)prop-1-en-2-yl)benzamide] | – | – | – | 7.3 ± 0.64 µM |

Second part, led by results:

| melting point | SMILES | IC50 ([1]; MDA-MB-231, read-out: IC50 Value (μM) MDA-MB-231) | IC50 [2] | IC50 [1, 3] |
| --- | --- | --- | --- | --- |
| 260 to 262 °C | COc1cc(/C=C(\NC(=O)c2cc(OC)c(OC)c(OC)c2)C(=O)N/N=C(\C)c2ccccc2)cc(OC)c1OC [Compound 5a, 3,4,5-Trimethoxy-N-((Z)-3-oxo-3-((E)-2-(1-phenylethylidene)hydrazinyl)-1-(3,4,5-trimethoxyphenyl)prop-1-en-2-yl)benzamide] | – | – | 20.2 ± 0.89 µM |
| 249 to 251 °C | COc1cc(/C=C(\NC(=O)c2cc(OC)c(OC)c(OC)c2)C(=O)N/N=C(\C)c2ccc(Cl)cc2)cc(OC)c1OC [Compound 5b, N-((Z)-3-((E)-2-(1-(4-Chlorophenyl)ethylidene)hydrazinyl)-3-oxo-1-(3,4,5-trimethoxyphenyl)prop-1-en-2-yl)-3,4,5-trimethoxybenzamide] | – | – | 14 ± 1.19 µM |
| 244 to 246 °C | COc1cc(/C=C(\NC(=O)c2cc(OC)c(OC)c(OC)c2)C(=O)N/N=C(\C)c2ccc(Br)cc2)cc(OC)c1OC [Compound 5c, N-((Z)-3-((E)-2-(1-(4-Bromophenyl)ethylidene)hydrazinyl)-3-oxo-1-(3,4,5-trimethoxyphenyl)prop-1-en-2-yl)-3,4,5-trimethoxybenzamide] | – | – | 20.7 ± 1.84 µM |
| 258 to 260 °C | COc1cc(/C=C(\NC(=O)c2cc(OC)c(OC)c(OC)c2)C(=O)N/N=C(\C)c2ccc(O)cc2)cc(OC)c1OC [Compound 5d, N-((Z)-3-((E)-2-(1-(4-Hydroxyphenyl)ethylidene)hydrazinyl)-3-oxo-1-(3,4,5-trimethoxyphenyl)prop-1-en-2-yl)-3,4,5-trimethoxybenzamide] | – | – | 1.98 ± 0.19 µM |
| 241 to 243 °C | COc1ccc(/C(C)=N/NC(=O)/C(=C/c2cc(OC)c(OC)c(OC)c2)NC(=O)c2cc(OC)c(OC)c(OC)c2)cc1 [Compound 5e, 3,4,5-Trimethoxy-N-((Z)-3-((E)-2-(1-(4-methoxyphenyl)ethylidene)hydrazinyl)-3-oxo-1-(3,4,5-trimethoxyphenyl)prop-1-en-2-yl)benzamide] | – | – | 9.52 ± 1.18 µM |
| 234 to 236 °C | COc1ccc(/C(C)=N/NC(=O)/C(=C/c2cc(OC)c(OC)c(OC)c2)NC(=O)c2cc(OC)c(OC)c(OC)c2)cc1OC [Compound 5f, N-((Z)-3-((E)-2-(1-(3,4-Dimethoxyphenyl)ethylidene)hydrazinyl)-3-oxo-1-(3,4,5-trimethoxyphenyl)prop-1-en-2-yl)-3,4,5-trimethoxybenzamide] | – | – | 8.34 ± 1.22 µM |
| 211 to 213 °C | COc1cc(/C=C(\NC(=O)c2cc(OC)c(OC)c(OC)c2)C(=O)N/N=C(\C)c2cc(OC)c(OC)c(OC)c2)cc(OC)c1OC [Compound 5g, 3,4,5-Trimethoxy-N-((Z)-3-oxo-1-(3,4,5-trimethoxyphenyl)-3-((E)-2-(1-(3,4,5-trimethoxyphenyl)ethylidene)hydrazinyl)prop-1-en-2-yl)benzamide] | – | – | 3.39 ± 0.26 µM |

Source: publication PMC9230623, “Design, Synthesis, In Vitro Biological Activity Evaluation and Stabilized Nanostructured Lipid Carrier Formulation of Newly Synthesized Schiff Bases-Based TMP Moieties” (Pharmaceuticals, 2022)
